The text below walks through data of patent US10189831B2, “Non-nucleoside reverse transcriptase inhibitors” (Merck Sharp & Dohme Corp., priority 2012, dated 2019).

For the test, the target named is HIV-1 RT wild-type enzyme (Human immunodeficiency virus type 1 group M subtype B (isolate HXB2) (HIV-1), UniProt P04585). In words: Determination of HIV-1 reverse transcriptase inhibitory activity (RT polymerase assay). The settings on record: HIV-1 RT wild-type enzyme 83 pM, RNA-dependent DNA polymerase reaction. Format: biochemical. The method, then:
The heterodimeric nucleic acid substrate used in the HIV-1 RT polymerase reactions was generated by annealing the DNA primer, biotinylated pD500 (Sigma Aldrich, USA, 5′-biotin-ttg aaa tga ctg cgg tac ggc-3′), SEQ ID NO. 1 to the nucleotide RNA template t500 (derived from hepatitis C virus [HCV] sequence, IBA, Germany, 5′-[…]-3′), SEQ ID NO 2.). […] The mixture was then preincubated on an orbital shaker for 30 min at room temperature in microtiter plates (Costar 3365, Corning, USA). A polymerization reaction was initiated by the addition of RNA template/pD500 DNA primer hybrid (16.6 nM final of RNA/DNA hybrid) and dNTPs (2 μM dATP, dGTP, dCTP and 66.6 nM Ru-dUTP (Meso Scale Discovery, USA)). Plate was sealed and incubated for 5-10 min at room temperature on an orbital shaker. Plate was then incubated for 90 min at 37° C. and reactions quenched with 60 μl quenching buffer (50 mM EDTA, 0.7% BSA, 0.7% Tween-20, 0.017% sodium azide in PBS). […] After washing plate 3 times with 150 μL 1×PBS and blotting dry between cycles, 150 μL 1× Read Buffer T (4× Read Buffer T, Meso Scale Discovery) was added and incubated for 5 min at room temperature before counting on a Sector Imager S6000 (Meso Scale Discovery). Titration curves and IC50 values were calculated using a four parameter logistic fit according to standard procedures. […]

In turn, `CC(C)c1ccc(-c2cc(Cn3cnc(C(F)(F)F)c(Oc4cc(Cl)cc(C#N)c4)c3=O)n[nH]c2=O)cc1` [Example 49, 3-chloro-5-((1-((5-(4-isopropylphenyl)-6-oxo-1,6-dihydropyridazin-3-yl)methyl)-6-oxo-4-(trifluoromethyl)-1,6-dihydropyrimidin-5-yl)oxy)benzonitrile] showed an IC50 of 15 nM.
